Patent US9408854B2, “Methods and systems for pharmacogenomic treatment of cardiovascular conditions” (ROSTAQUO S.P.A., priority 2009, dated 2016)

Test system: hypertensive patients
Assay: Pharmacogenomic study: change of office systolic blood pressure (DSBP5_0) after 5 weeks of rostafuroxin vs placebo, by genotype
Assay type: in vivo, human
Protocol: A pharmacogenomic study was performed to ascertain the effect of genetic variations on an individual response to rostafuroxin. The sample for the pharmacogenomic study consisted of 342 individuals that were genotyped with the Human1M array from Illumina using Human1M Duo CHIP genotyping Bead Chip according to procedure described in [Ref. 10, 11, 12]. Among the individuals, 169 were administered the placebo treatment and 173 the active drug (rostafuroxin) in the first period (5 weeks) with demographics as in [Ref 13]. In particular, patients were randomized to one of the following oral doses of rostafuroxin: 0.05, 0.15, 0.5, 1.5, or 5 mg/day for 5 weeks. Each dose had to be compared to a placebo in a crossover design.
For the above sample of individuals a genetic association analysis, was performed to associate the phenotype of the tested individuals with the SNPs detected in the individuals. The selected phenotype of interest was the blood pressure response. The SNPs selected for detection were the 1111170 SNPs on autosomal chromosomes of the individual.
The genetic analysis was performed according to a quantitative genetic association design where the phenotype of interest is a quantitative variable (QT), and the variables (factors) affecting the distribution of the phenotype of interest are SNPs, therapy (placebo, rostafuroxin) and the SNP*therapy interaction.
In particular, the quantitative phenotype selected for the statistical analyses was the difference in mmHg between the office Systolic Blood Pressure (SBP) at the end of first treatment period (SBP_5) and the office Systolic Blood Pressure at baseline after one month of run-in (SBP_0) and is herein also identified as DSBP5_0. The selected QT phenotype and other factors affecting distribution of the phenotype of interest were then analyzed according to the following quantitative trait interaction test Phenotype=SNP+therapy+SNP*therapy as illustrated in further details below.
In particular, in Table 2 the descriptive statistics of DSBP5_0 for the entire sample and for the patients treated with placebo and rostafuroxin are listed. The rather modest basal level of SBP can be explained in view of the recruitment of patients with “mild” hypertension (SBP range 140-179 mmHg), required by the inclusion of a placebo arm.
Those SNPs were further selected to identify the genotypes with the largest response to rostafuroxin compared to placebo by performing a Statistical ANOVA analysis using STATA software in placebo and rostafuroxin with DSBP5_0 as dependent variable and the candidate significant SNPs as independent variables. In particular, to select the genotypes of the interactions between two SNPs with the largest response to rostafuroxin compared to placebo, the Applicants performed an ANOVA statistics in placebo and rostafuroxin with DSBP5_0 as dependent variable and the interaction s between SNPs as independent variables. The Applicants report an example of this procedure in FIG. 5: interaction between rs8899 and rs4678. The Applicants selected the interaction between the genotype AA of rs8899 and the genotype BB of rs4678 because it presents the greatest remarkable decrement in the therapy group and not in the placebo group.
In particular, to select the genotypes with the largest response to rostafuroxin compared to placebo, the Applicants performed an ANOVA statistics (oneway) in placebo and rostafuroxin with DSBP5_0 as dependent variable and the significant SNPs as independent variables.

[1] = GWS SNP ga001619 (PIGR) genotype 1
[2] = GWS SNP rs188334 (FAIM3) genotype 1
[3] = GWS SNP rs721207 (LOC131691) genotype 3
[4] = GWS SNP rs748140 (PIGR) genotype 1
[5] = GWS SNP rs1110446 (TRIM31) genotype 1
[6] = GWS SNP rs1110446 (TRIM31) genotype 2
[7] = GWS SNP rs1362126 (HLA-F) genotype 3
[8] = GWS SNP rs1901139 (LOC644192) genotype 3
[9] = GWS SNP rs1998394 (LOC728316) genotype 3
[10] = GWS SNP rs2275531 (PIGR) genotype 3
[11] = GWS SNP rs2345088 (KCNS3) genotype 1
[12] = GWS SNP rs2345088 (KCNS3) genotype 2
[13] = GWS SNP rs2427832 (LOC649458) genotype 2
[14] = GWS SNP rs2461911 (LOC389970) genotype 1
[15] = GWS SNP rs2517718 (HLA-A) genotype 1
[16] = GWS SNP rs2555500 (LOC389174) genotype 1
[17] = GWS SNP rs2743951 (RP3-377H14.5) genotype 3
[18] = GWS SNP rs3087816 (SLC30A7) genotype 2
[19] = GWS SNP rs3893464 (HCG9) genotype 1
[20] = GWS SNP rs4710592 (RCADH5) genotype 3
[21] = GWS SNP rs4998662 (FAM46A) genotype 2
[22] = GWS SNP rs5013093 (HLA-G) genotype 1
[23] = GWS SNP rs6457110 (HCG9) genotype 1
[24] = GWS SNP rs6718282 (KCNS3) genotype 2
[25] = GWS SNP rs7216331 (COX10) genotype 2
[26] = GWS SNP rs7521668 (DPH5) genotype 1
[27] = GWS SNP rs7521668 (DPH5) genotype 2
[28] = GWS SNP rs8179654 (LOC642727) genotype 3

`C[C@]12CC[C@H](O)C[C@H]1CC[C@@H]1[C@@H]2CC[C@]2(C)[C@@](O)(c3ccoc3)CC[C@]12O` [rostafuroxin, 17β-(3-furyl)-5β-androstane-3β,14β,17α-triol] was tested, and the “higher response in blood pressure drop, low doses vs high doses” value (0.05 to 0.50 mg/day vs 1.5 to 5 mg/day) was “+50%”, the “DELTA delta Therapy placebo” value [1] was 9.252 mmHg and the DSBP5_0 therapy [1] was −13.615 mmHg. For the same compound, the “DELTA delta Therapy placebo” value [2] was 8.146 mmHg, the DSBP5_0 therapy [2] was −11.82 mmHg and the “DELTA delta Therapy placebo” value [3] was 6.934 mmHg. For the same compound, the DSBP5_0 therapy [3] was −11.58 mmHg, the “DELTA delta Therapy placebo” value [4] was 6.506 mmHg and the DSBP5_0 therapy [4] was −11.28 mmHg. For the same compound, the “DELTA delta Therapy placebo” value [5] was 20.59 mmHg, the DSBP5_0 therapy [5] was −16.37 mmHg and the “DELTA delta Therapy placebo” value [6] was 3.54 mmHg. For the same compound, the DSBP5_0 therapy [6] was −10.13 mmHg, the “DELTA delta Therapy placebo” value [7] was 4.93 mmHg and the DSBP5_0 therapy [7] was −10.29 mmHg. For the same compound, the “DELTA delta Therapy placebo” value [8] was 10.52 mmHg, the DSBP5_0 therapy [8] was −12.11 mmHg and the “DELTA delta Therapy placebo” value [9] was 5.788 mmHg. For the same compound, the DSBP5_0 therapy [9] was −10.51 mmHg, the “DELTA delta Therapy placebo” value [10] was 7.817 mmHg and the DSBP5_0 therapy [10] was −12.18 mmHg. For the same compound, the DSBP5_0 therapy (GWS SNP rs2326912 (TMEM200A) genotype 1) was −11.7 mmHg, the “DELTA delta Therapy placebo” value [11] was 33.93 mmHg and the DSBP5_0 therapy [11] was −30.5 mmHg. The “DELTA delta Therapy placebo” value [12] was 3.512 mmHg, the DSBP5_0 therapy [12] was −10.69 mmHg and the “DELTA delta Therapy placebo” value [13] was 6.845 mmHg. The DSBP5_0 therapy [13] was −10.38 mmHg, the “DELTA delta Therapy placebo” value [14] was 22.82 mmHg and the DSBP5_0 therapy [14] was −20.6 mmHg. For the same compound, the “DELTA delta Therapy placebo” value [15] was 6.212 mmHg, the DSBP5_0 therapy [15] was −11.83 mmHg and the “DELTA delta Therapy placebo” value [16] was 5.2 mmHg. For the same compound, the DSBP5_0 therapy [16] was −10.52 mmHg, the “DELTA delta Therapy placebo” value [17] was 5.62 mmHg and the DSBP5_0 therapy [17] was −11.17 mmHg. The “DELTA delta Therapy placebo” value [18] was 7.021 mmHg, the DSBP5_0 therapy [18] was −13.044 mmHg and the “DELTA delta Therapy placebo” value [19] was 9.016 mmHg. The DSBP5_0 therapy [19] was −10.99 mmHg, the “DELTA delta Therapy placebo” value [20] was 20.075 mmHg and the DSBP5_0 therapy [20] was −23.825 mmHg. For the same compound, the “DELTA delta Therapy placebo” value [21] was 13.54 mmHg, the DSBP5_0 therapy [21] was −15.81 mmHg and the “DELTA delta Therapy placebo” value [22] was 22.09 mmHg. The DSBP5_0 therapy [22] was −20.49 mmHg, the “DELTA delta Therapy placebo” value [23] was 5.862 mmHg and the DSBP5_0 therapy [23] was −10.35 mmHg. For the same compound, the DSBP5_0 therapy (GWS SNP rs6718282 (KCNS3) genotype 1) was −41.3 mmHg, the “DELTA delta Therapy placebo” value [24] was 13.825 mmHg and the DSBP5_0 therapy [24] was −12.625 mmHg. For the same compound, the “DELTA delta Therapy placebo” value [25] was 13.91 mmHg, the DSBP5_0 therapy [25] was −15.81 mmHg and the “DELTA delta Therapy placebo” value [26] was 28.95 mmHg. For the same compound, the DSBP5_0 therapy [26] was −25 mmHg, the “DELTA delta Therapy placebo” value [27] was 7.021 mmHg and the DSBP5_0 therapy [27] was −13.044 mmHg. For the same compound, the “DELTA delta Therapy placebo” value [28] was 8.442 mmHg, the DSBP5_0 therapy [28] was −10.95 mmHg and the “DELTA delta Therapy placebo” value (GWS SNP rs9361863 (LOC728360) genotype 1) was 19.6 mmHg.
